Laboratory results from US10793567B2, “Bicyclic inhibitors of histone deacetylase” (Rodin Therapeutics, Inc., priority 2017, dated 2020).
Like-named read-outs stand apart in the source and are kept apart here.

Columns and labels:
[1] = Brain and plasma exposure following IV and PO administration to mice; type: in vivo; conditions: mice; for Projected free brain @ 10 mpk / Brain Cmax @ 10 mpk: 10 mg/kg PO; for half-life / clearance: mouse, plasma; for clearance: read-out: IV PK Cl (converted)
Protocol: Compounds were dosed in mice at either 10 mg/kg or 30 mg/kg PO, and were dosed at 1 mg/kg IV. Three animals for collection at each time point for plasma via bleeding at 0.25, 0.5, 1, 4, 12 and 24 h. Terminal bleeding for plasma and sampling for brain at 0.25, 0.5, 1, 4, 12 and 24 h (also three animals per brain exposure time point group). Total of six time points for plasma and six time points for brain.
Plasma: The animal was restrained manually at the designated time points, approximately 150 μL blood/time point was collected into K2EDTA tube via retro orbital puncture or cardiac puncture under anesthesia with Isoflurane. The blood sample was centrifuged (2000 g, 4° C., 5 min) to generate plasma within 30 min after bleeding.
Brain: At the designated time points, a mid-line incision was made in the animals scalp and the skin was retracted. Using small bone cutters and rongeurs, removed the skull overlying the brain. Removed the brain using a spatula and rinse with cold saline. Placed the brain in screw-top tubes, and then stored the tubes under −70° C. until analysis.

HDAC2 [2] = molecular target: T1, HDAC2 (Homo sapiens (Human), UniProt Q92769); experiment: HDAC2 enzymatic inhibition assay in SY5Y cell lysate (HDAC-Glo 2); type: cell-based; conditions: SH-SY5Y cells, five hours incubation
Protocol: SH-SY5Y cells (Sigma) were cultured in Eagle's Modified Essential Medium supplemented with 10% fetal bovine serum and pen/strep. Twenty-four hours prior to compound dosing 20 uL of cells were plated in white 384 well plates at a density of 1,500 cells/well. Compounds were serially diluted in neat DMSO and then diluted 1:100 v/v into media without FBS and mixed. Media was removed from the plated cells and the diluted compounds in serum free media (1% v/v final DMSO) were added and incubated at 37.0 for five hours. Ten uL of HDAC-Glo 2 reagent with 0.1% Triton X-100 was then added, the plate was mixed and allowed to develop at room temperature for 100 minutes. Plates were then read with a Spectramax LMax luminometer employing a 0.4 s integration time. Dose response curves were constructed with normalized data where CI-994 at 100 uM was defined as 100% inhibition and DMSO alone as 0% inhibition.

HDAC2 [3] = molecular target: T1, HDAC2; experiment: HDAC2 enzymatic assay (Caliper LabChip, peptide deacetylation); type: biochemical; conditions: 17 hours, 25° C.
Protocol: The following describes an assay protocol for measuring the deacetylation of a peptide substrate by the enzymes HDAC2 or HDAC1. Enzyme, substrate, and cofactors are combined in a well of a microtiter plate and incubated for […] at 25° C. At the end of the incubation, the reaction is quenched by the addition of an SDS-containing buffer. Substrate and product are separated and quantified electrophoretically using the microfluidic-based LabChip 3000 Drug Discovery System from Caliper Life Sciences. The peptide substrate used in this assay is FAM-TSRHK(AC)KL-CONH2 (FAM is carboxyfluorescein). Peptide should be >98% purity by Capillary Electrophoresis. • 1. To a well of a 384-well plate, add 5 μL of 2× enzyme buffer. Using Labcyte Echo 550, add 100 nl compound. Enzyme and compound may be pre-incubated at this time if desired. • 2. Add 5 μL of 2× substrate buffer. • 3. Incubate plate at 25° C. for 17 hours. • 4. Terminate reaction by adding 40 μL of 1.55× stop buffer. • 5. Create job on a Caliper LabChip® 3000 Drug Discovery System. • 6. […]
Substrate and product peptides present in each sample are separated electrophoretically using the LabChip 3000 capillary electrophoresis instrument. As substrate and product peptides are separated, two peaks of fluorescence are observed. Change in the relative fluorescence intensity of the substrate and product peaks is the parameter measured, reflecting enzyme activity. Capillary electrophoregramms (RDA acquisition files) are analyzed using HTS Well Analyzer software (Caliper Life Sciences). The […] in each sample is determined as the product to sum ratio (PSR): P/(S+P), where P is the peak height of the product peptide and S is the peak height of the substrate peptide. For each compound, enzyme activity is measured at various concentrations (12 concentrations of compound spaced by 3× dilution intervals). […]
The IC50 values of inhibitors are determined by fitting the inhibition curves (Pinh versus inhibitor concentration) by 4 parameter sigmoidal dose-response model using XLfit 4 software (IBDS). […]

HDAC1 = HDAC1 (Homo sapiens (Human), UniProt Q13547); experiment: HDAC1 enzymatic assay (Caliper LabChip, peptide deacetylation); type: biochemical; conditions: 17 hours, 25° C.
Protocol: The following describes an assay protocol for measuring the deacetylation of a peptide substrate by the enzymes HDAC2 or HDAC1. Enzyme, substrate, and cofactors are combined in a well of a microtiter plate and incubated for […] at 25° C. At the end of the incubation, the reaction is quenched by the addition of an SDS-containing buffer. Substrate and product are separated and quantified electrophoretically using the microfluidic-based LabChip 3000 Drug Discovery System from Caliper Life Sciences. The peptide substrate used in this assay is FAM-TSRHK(AC)KL-CONH2 (FAM is carboxyfluorescein). Peptide should be >98% purity by Capillary Electrophoresis. • 1. To a well of a 384-well plate, add 5 μL of 2× enzyme buffer. Using Labcyte Echo 550, add 100 nl compound. Enzyme and compound may be pre-incubated at this time if desired. • 2. Add 5 μL of 2× substrate buffer. • 3. Incubate plate at 25° C. for 17 hours. • 4. Terminate reaction by adding 40 μL of 1.55× stop buffer. • 5. Create job on a Caliper LabChip® 3000 Drug Discovery System. • 6. Load the plate and start electrophoresis using blue laser (480 nm) for excitation and green CCD (520 nm) for detection (CCD2). Reaction time=17 hours; Reaction temperature=25° C.
1% DMSO (from compound) 1 μM FAM-TSRHK(AC)KL-CONH2 5 nM HDAC Enzyme (specific activity may vary from lot-to-lot, and enzyme concentration may need to be adjusted to yield˜10-20% conversion of substrate to product).
Substrate and product peptides present in each sample are separated electrophoretically using the LabChip 3000 capillary electrophoresis instrument. As substrate and product peptides are separated, two peaks of fluorescence are observed. Change in the relative fluorescence intensity of the substrate and product peaks is the parameter measured, reflecting enzyme activity. Capillary electrophoregramms (RDA acquisition files) are analyzed using HTS Well Analyzer software (Caliper Life Sciences). The […] in each sample is determined as the product to sum ratio (PSR): P/(S+P), where P is the peak height of the product peptide and S is the peak height of the substrate peptide. For each compound, enzyme activity is measured at various concentrations (12 concentrations of compound spaced by 3× dilution intervals). Negative control samples (0%-inhibition in the absence of inhibitor) and positive control samples (100%-inhibition, in the presence of 20 mM EDTA) are assembled in replicates of four and are used to calculate %-inhibition values for each compound at each concentration. Percent inhibition (Pinh) is determined using following equation: Pinh=(PSR0%−PSRinh)/(PSR0%−PSR100%)*100, where PSRinh is the product sum ratio in the presence of inhibitor, PSR0% is the average product sum ration in the absence of inhibitor and PSR100% is the average product sum ratio in 100%-inhibition control samples.
The IC50 values of inhibitors are determined by fitting the inhibition curves (Pinh versus inhibitor concentration) by 4 parameter sigmoidal dose-response model using XLfit 4 software (IBDS).
In the table, “A” indicates a […] of between 0.1 μM and 0.5 μM and “B” a Kd value of greater than 0.5 μM and less than or equal to 5.0 μM.

[4] = test system: human erythroid progenitors (CFU-E, BFU-E); experiment: Erythroid CFU assay (colony forming cell assay, bone marrow); type: cell-based; conditions: 14 days in culture
Protocol: (§1) Compounds were tested to evaluate the potential effects on human erythroid and myeloid progenitors using colony forming cell assays. Clonogenic progenitors of human erythroid (CFU-E, BFU-E), granulocyte-monocyte (CFU-GM) and multipotential (CFU-GEMM) lineages were assessed in a semi-solid methylcellulose-based media formulation containing rhlL-3 (10 ng/mL), rhGM-SCF (10 ng/mL), rhSCF (50 ng/mL) and Epo (3 U/mL).
(§2) Normal human bone marrow light density cells derived from normal bone marrow (NorCal Biologics, California), were stored in the gaseous phase of liquid nitrogen (−152° C.) until required for the assay. On the day of the experiment, the cells were thawed rapidly, the contents of each vial was diluted in 10 mL of Iscove's modified Dulbecco's medium containing 10% fetal bovine serum (IMDM+10% FBS) and washed by centrifugation (approximately 1200 r.p.m. for 10 minutes, room temperature). The supernatant was discarded and the cell pellets resuspended in a known volume of IMDM+10% FBS. A cell count (3% glacial acetic acid) and viability assessment (trypan blue exclusion test) was performed for the bone marrow sample.
(§3) On the day of the experiment, the compounds were dissolved in DMSO to a stock concentration of 10 mM. Serial dilutions were prepared from the stock concentration to achieve concentrations of 2 and 0.4 mM. When added to the methylcellulose-based media at 1:1000 (v/v), the final test concentrations of 10, 2 and 0.4 μM were achieved. Additionally, 5-FU was evaluated at 1.0, 0.1 and 0.01 μg/mL.
(§4) Clonogenic progenitors of the human erythroid (CFU-E and BFU-E) and myeloid (CFU-GM) lineages were set up in the methylcellulose-based media formulations described above. All compounds were added to the medium to give the final desired concentrations (10, 2 and 0.4 μM). 5-Fluorouracil (Sigma Aldrich) was used as a positive control for progenitor proliferation (inhibition of colony growth) and was introduced to the human bone marrow cultures at 1.0, 0.1, and 0.01 μg/mL. Solvent control cultures (containing no compound but 0.1% DMSO) as well as standard controls (containing no compound and no DMSO) were also initiated.
(§5) Human myeloid and erythroid progenitor assays were initiated at 2.0×10^4 cells per culture. Following 14 days in culture, myeloid and erythroid colonies were assessed microscopically and scored by trained personnel. The colonies were divided into the following categories based on size and morphology: CFU-E, BFU-E, CFU-GM and CFU-GEMM.
(§6) The mean±one standard deviation of three replicate cultures was calculated for progenitors of each category (CFU-E, BFU-E, etc.). Two-tailed t-tests were performed to assess if there was a difference in the number of colonies generated between solvent control and treated cultures. Due to the potential subjectivity of colony enumeration, a p value of less than 0.01 is deemed significant. To calculate the concentration of 50% inhibition of colony growth (IC50) for each compound, a dose response curve was generated plotting the log of the compound concentration versus the percentage of control colony growth using XLfit software (IDBS). The concentration of 50% inhibition of colony growth (IC50) was calculated based on the sigmoid curve fit using Dose-Response, One-Site Model formula: y=A+[(B−A)/(1+((C/x)^D))], where A=the initial value (baseline response), B=maximum response, C=center (drug concentration that provokes a response halfway between A and B) and D=slope of the curve at midpoint. Further, plots and additional dose response curves were generated using GraphPad Prism 7.0.
(§7) Erythroid (CFU-E and BFU-E), myeloid (CFU-GM) and multi-potential (CFU-GEMM) colony enumeration was performed by trained personnel. The distribution of colony types as well as general colony and cellular morphology was analyzed. For statistical analysis colony numbers in compound treated cultures were compared to the solvent control cultures. […]

[5] = test system: human myeloid progenitors (CFU-GM); experiment: Myeloid CFU assay (colony forming cell assay, bone marrow); type: cell-based; conditions: 14 days in culture
Protocol: as §1, §2, §3, §4, §5, §6, §7

[6] = iv, 1 mg/kg, 1 mg/kg IV, read-out: IV PK T1/2 (converted)
[7] = po, 10 mg/kg, PO, read-out: PO T1/2 (converted)

T1 sequence (Q92769 whole entry): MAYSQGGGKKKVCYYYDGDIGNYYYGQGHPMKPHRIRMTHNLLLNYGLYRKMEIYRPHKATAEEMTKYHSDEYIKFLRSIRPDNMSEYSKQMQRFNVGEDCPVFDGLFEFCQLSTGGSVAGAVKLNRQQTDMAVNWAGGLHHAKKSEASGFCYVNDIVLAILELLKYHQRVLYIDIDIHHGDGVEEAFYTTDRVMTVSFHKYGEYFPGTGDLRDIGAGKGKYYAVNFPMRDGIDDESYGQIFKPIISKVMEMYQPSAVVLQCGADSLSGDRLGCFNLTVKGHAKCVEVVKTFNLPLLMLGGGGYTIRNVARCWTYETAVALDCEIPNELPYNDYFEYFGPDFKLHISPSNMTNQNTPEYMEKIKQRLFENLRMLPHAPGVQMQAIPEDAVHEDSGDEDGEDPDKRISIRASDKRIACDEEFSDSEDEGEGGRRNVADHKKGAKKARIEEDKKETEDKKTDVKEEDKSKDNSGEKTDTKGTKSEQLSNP
HDAC1, sequence (Q13547 whole entry): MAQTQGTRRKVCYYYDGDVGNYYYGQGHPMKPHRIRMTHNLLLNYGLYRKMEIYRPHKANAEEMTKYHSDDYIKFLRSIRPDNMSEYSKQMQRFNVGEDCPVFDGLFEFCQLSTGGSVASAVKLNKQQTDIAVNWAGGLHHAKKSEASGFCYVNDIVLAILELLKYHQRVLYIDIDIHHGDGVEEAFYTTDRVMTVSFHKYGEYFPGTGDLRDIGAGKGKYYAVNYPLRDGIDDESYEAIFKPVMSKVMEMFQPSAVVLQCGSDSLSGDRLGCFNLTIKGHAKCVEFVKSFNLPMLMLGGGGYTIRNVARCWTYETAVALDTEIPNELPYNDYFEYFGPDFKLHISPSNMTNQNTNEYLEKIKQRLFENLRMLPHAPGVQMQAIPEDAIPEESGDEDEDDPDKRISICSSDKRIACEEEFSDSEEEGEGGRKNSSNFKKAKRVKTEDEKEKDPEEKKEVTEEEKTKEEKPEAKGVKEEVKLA

Row | half-life [1, 6] [h] | half-life [1, 7] [h] | clearance ([1]; 1 mg/kg IV) [mL/min/kg] | IC50 (HDAC2 [2]) [nM] | Erythroid % control @ 10 uM dose [4] [%] | Myeloid % control @ 10 uM dose [5] [%] | SMILES | also measured
1 |  |  |  | > 1500 |  |  | Nc1ccc(-c2cccnc2)nc1NC(=O)N1Cc2cnc(C(F)F)cc2C1 [Compound 16] | 
2 | 7.53 | 2.9 | 17.8 | 100 to 1000 | 94 | 103 | Cn1cc2c(n1)CN(C(=O)Nc1nc(-c3cccnc3)ccc1N)C2 [Compound 11] | Projected free brain @ 10 mpk [1]: 0.664 µM; Brain Cmax @ 10 mpk ([1]; brain): 369 ng/g
3 |  |  |  | 100 to 1000 |  |  | Nc1ccc(-c2cccnc2)nc1NC(=O)N1Cc2cnc(CC(F)F)cc2C1 [Compound 15] | 

More lines, now with the values behind:

Row | SMILES | half-life [1, 6] [h] | half-life [1, 7] [h] | clearance ([1]; 1 mg/kg IV) [mL/min/kg] | IC50 (HDAC2 [2]) [nM] | Erythroid % control @ 10 uM dose [4] [%] | Myeloid % control @ 10 uM dose [5] [%] | also measured
4 | Cc1nc2c(n1C)CN(C(=O)Nc1nc(-c3ccc(F)cc3)ccc1N)C2 [Compound 7] | 3.06 | 2.95 | 28.5 | 100 to 1000 |  |  | Projected free brain @ 10 mpk [1]: 0.050 µM; Brain Cmax @ 10 mpk ([1]; brain): 102 ng/g
5 | Nc1ccc(-c2ccc(F)cc2F)nc1NC(=O)N1Cc2cn(C3COC3)nc2C1 [Compound 6] |  |  |  | 100 to 1000 |  |  | IC50 (HDAC2 [3]): 500 to 5000 nM; IC50 (HDAC1): 500 to 5000 nM
6 | Cc1ncc(-c2ccc(N)c(NC(=O)N3Cc4cn(C)nc4C3)n2)s1 [Compound 4] | 1.86 | 2.12 | 8.93 | 100 to 1000 | 53 | 96 | Projected free brain @ 10 mpk [1]: 0.479 µM; Brain Cmax @ 10 mpk ([1]; brain): 324 ng/g
7 | COCc1cc2c(cn1)CN(C(=O)Nc1nc(-c3ccc(F)cc3)ccc1N)C2 [Comparator 5, reference compound] |  |  |  |  | 22.9 | 58.9 | 
8 | Cn1cc2c(n1)CN(C(=O)Nc1nc(-c3ccc(F)cc3)ccc1N)C2 [Comparator 2, reference compound] |  |  |  |  | 15.7 | 30.4 | 
9 | Nc1ccc(-c2cccs2)nc1NC(=O)N1Cc2cncnc2C1 [Comparator 6] | 0.152 | 0.557 | 139 |  |  |  | 
10 | Nc1ccc(-c2ccc(F)cc2)nc1NC(=O)N1Cc2cncnc2C1 [Comparator 1, reference compound] |  |  |  |  | 47.1 | 83.9 | Projected free brain @ 10 mpk (uM) (*scaled for comparison) ([1]; dosed 30 mg/kg PO, scaled to 10 mg/kg PO): 0.111* uM; Brain Cmax @ 10 mpk ng/g (*scaled for comparison) ([1]; dosed 30 mg/kg PO, scaled to 10 mg/kg PO, brain): 158* ng/g
11 | Cc1cc2c(cn1)CN(C(=O)Nc1nc(-c3ccc(F)cc3)ccc1N)C2 [Comparator 3, reference compound] |  |  |  |  | 25.7 | 66.1 | 
